What was measured:
zHDAC6 (Y745F) = molecular target: T1, zHDAC6 (Y745F) (Danio rerio, UniProt F8W4B7, Y745F); assay: Inhibition assay, zebrafish HDAC6 catalytic DD2 domain, Y745F mutant; type: biochemical
T1 construct: Danio rerio HDAC6 (amino acids 440–798; zHDAC6); His (N, cleaved yes); MBP (N, cleaved yes); made in house; host or cells: RIPL Escherichia coli
T1 sequence (F8W4B7 440-798 Y745F): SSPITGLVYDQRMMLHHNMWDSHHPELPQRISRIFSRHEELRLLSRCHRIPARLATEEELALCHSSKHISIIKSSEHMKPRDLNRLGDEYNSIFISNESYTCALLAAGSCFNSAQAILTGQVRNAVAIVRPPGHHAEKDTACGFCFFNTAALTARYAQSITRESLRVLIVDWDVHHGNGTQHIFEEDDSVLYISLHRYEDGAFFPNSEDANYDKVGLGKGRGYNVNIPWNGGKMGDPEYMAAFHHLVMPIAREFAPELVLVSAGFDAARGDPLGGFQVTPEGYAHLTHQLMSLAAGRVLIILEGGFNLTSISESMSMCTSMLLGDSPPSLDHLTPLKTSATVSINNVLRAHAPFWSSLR
Protocol: The second catalytic domain of Danio rerio HDAC6 (amino acids 440–798; zHDAC6) was expressed in RIPL Escherichia coli as described previously using the pEC566-zHDAC6 expression vector.[16],[38] Briefly, bacteria were incubated at 37 °C with shaking (250 rpm) until the optical density reached an OD600 = 0.5. Then, the culture was cooled to 18 °C for 1 h, and recombinant protein expression was induced by the addition of 75 μM isopropyl β-D-1-thiogalactopyranoside together with 200 μM ZnSO4. The culture was grown at 18 °C for an additional 18 h and harvested by centrifugation at 5500g for 15 min. The cell pellet was resuspended in the lysis buffer (50 mM phosphate, 300 mM NaCl, 10% glycerol, and 20 mM imidazole at pH 8; 5 mL g^–1 bacterial pellet) and lysed by three passages through EmulsiFlex (Avestin). Cell lysates were centrifuged (15,000g at 4 °C for 20 min), and the fusion protein in the supernatant was purified via Ni-NTA chromatography. Fractions containing the His-MBP-HDAC6 fusion were concentrated to 2 mg mL^–1 and cleaved overnight by the addition of TEV protease (zHDAC6/TEV 1:20 ratio). The cleaved tag and the TEV protease were sequentially removed using amylose (New England Biolabs) and HisTrap columns (Cytiva), and zHDAC6 was further purified by size-exclusion chromatography on a HiLoad Superdex 75 pg column (GE Healthcare Bio-Sciences). Fractions containing zHDAC6 were pooled, concentrated to 10 mg mL^–1, flash-frozen in liquid nitrogen, and stored at −80 °C. The purity of protein preparations was monitored by SDS-PAGE (Figure S2).
The zHDAC6 mutants (Y745F and H574A) were constructed using the Quick-change site-directed mutagenesis protocol with the pEC566-zHDAC6 expression plasmid as a template. Both mutants were expressed and purified as described above for wild-type zHDAC6 (Figure S2).
(§1) Optimized fluorometric assays were used to determine inhibition constants of studied compounds against individual HDAC isoforms as described previously.[32] Briefly, reactions were performed in the activity buffer comprising 50 mM HEPES, 140 mM NaCl, and 10 mM KCl at pH 7.4 supplemented with 1 mg mL^–1 bovine serum albumin (BSA), 1 mM tris(2-carboxyethyl)phosphine (TCEP), 10 μM substrates, and optimized concentrations of HDACs. The Ac-Gly-Ala-[Lys-Ac]-7-amino-methylcoumarylamide (AMC) substrate was used to profile HDACs 1, 2, 3, and 6; Boc-[Lys-TFA]-7-amino-methylcoumarylamide was used for HDACs 4, 5, 7, 8, and 9 (both substrates: Bachem); fluorescein-labeled N8-acetylspermidine was used for HDAC10;[32] and an internally quenched TNFα-derived peptide derivative was used for HDAC11.[39] Deacetylation reactions were monitored either by high-performance liquid chromatography (HPLC) (HDAC10) or by quantification of released AMC (λex/λem = 365/440 nm) using a CLARIOstar plate reader (BMG Labtech GmbH).

HDAC6 = molecular target: T2, HDAC6 (Homo sapiens, UniProt Q9UBN7); assay: Fluorometric HDAC inhibition assay, HDAC6; type: biochemical; settings: purified human protein; Ac-Gly-Ala-[Lys-Ac]-AMC substrate 10 μM; 15 min preincubation
T2 construct: TwinStrep-FLAG-HALO (N, cleaved yes); made in house; host or cells: HEK293/T17
T2 sequence (Q9UBN7 1-1215): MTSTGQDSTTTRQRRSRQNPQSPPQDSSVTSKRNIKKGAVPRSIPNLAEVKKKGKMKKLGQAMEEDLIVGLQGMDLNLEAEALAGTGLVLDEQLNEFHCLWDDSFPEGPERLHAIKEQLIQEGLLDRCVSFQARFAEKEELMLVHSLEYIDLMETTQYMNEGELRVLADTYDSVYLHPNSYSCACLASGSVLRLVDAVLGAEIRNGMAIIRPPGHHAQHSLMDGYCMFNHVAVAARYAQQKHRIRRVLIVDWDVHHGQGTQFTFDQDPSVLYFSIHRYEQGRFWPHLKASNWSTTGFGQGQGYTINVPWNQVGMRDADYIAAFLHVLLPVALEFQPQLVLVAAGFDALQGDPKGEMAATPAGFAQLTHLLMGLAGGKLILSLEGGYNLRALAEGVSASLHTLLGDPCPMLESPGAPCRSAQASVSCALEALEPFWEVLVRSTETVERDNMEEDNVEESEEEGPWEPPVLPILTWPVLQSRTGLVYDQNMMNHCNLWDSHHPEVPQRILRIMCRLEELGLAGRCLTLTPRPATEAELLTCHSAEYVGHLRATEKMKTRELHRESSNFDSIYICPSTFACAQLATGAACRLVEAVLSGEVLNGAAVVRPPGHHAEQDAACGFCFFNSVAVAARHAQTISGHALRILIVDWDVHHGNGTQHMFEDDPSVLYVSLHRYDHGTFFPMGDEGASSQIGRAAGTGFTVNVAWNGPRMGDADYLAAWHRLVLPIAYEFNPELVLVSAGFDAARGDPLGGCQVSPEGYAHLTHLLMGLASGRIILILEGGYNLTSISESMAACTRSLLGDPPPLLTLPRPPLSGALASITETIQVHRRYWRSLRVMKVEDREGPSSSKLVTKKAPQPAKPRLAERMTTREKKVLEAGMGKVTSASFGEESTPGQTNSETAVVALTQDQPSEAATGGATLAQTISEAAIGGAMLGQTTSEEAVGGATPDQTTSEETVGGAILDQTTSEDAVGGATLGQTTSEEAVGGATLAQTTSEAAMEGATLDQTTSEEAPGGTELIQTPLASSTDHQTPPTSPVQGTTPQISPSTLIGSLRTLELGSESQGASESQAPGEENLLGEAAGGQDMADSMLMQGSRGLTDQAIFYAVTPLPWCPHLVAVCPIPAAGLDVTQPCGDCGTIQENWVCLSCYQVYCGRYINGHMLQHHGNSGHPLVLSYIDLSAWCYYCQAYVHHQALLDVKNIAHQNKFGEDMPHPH
Protocol: Large-scale expression of recombinant human HDACs was carried out as described previously.[32],[37] Briefly, HEK293/T17 cells were transiently transfected with expression pMM222 plasmids comprising N-terminally tagged (TwinStrep-FLAG-HALO tag; Figure S1) HDAC genes using linear poly(ethyleneimine) (PEI, Polysciences Inc.). Cells were harvested three days post-transfection, and cell pellets were resuspended in the lysis buffer (100 mM Tris-HCl, 10 mM NaCl, 5 mM KCl, 2 mM MgCl2, and 10% glycerol at pH 8.0). Cells were disrupted by sonication, cell lysates were cleared by centrifugation, and soluble fusion proteins were first purified by Streptactin affinity chromatography (IBA). For all HDACs but HDACs 1, 10, and 11, the N-terminal tag was cleaved off overnight by the addition of TEV protease (10:1 HDAC/TEV ratio). Size-exclusion chromatography on a Superose 6 column (GE Healthcare Bio-Sciences; running buffer 30 mM HEPES, 140 mM NaCl, 10 mM KCl, 3% glycerol, and 0.25 mM TCEP) was used as the final purification step for all HDAC constructs.
as §1

Q: With `CS(=O)(=O)N(Cc1ccc(-c2nnc(CF)o2)cn1)c1cccc(Cl)c1` [compound 9] as the compound, how does the IC50 (zHDAC6 (Y745F)) read?
A: > 20 µM

Q: And the IC50 (HDAC6)?
A: 0.085 ± 0.0028 µM

Q: For `Cc1nnc(-c2ccc(CN(c3cccc(Cl)c3)S(C)(=O)=O)nc2)o1` [compound 10], which IC50 (HDAC6) is on record?
A: > 100 µM
